# Target: Plasmin (Homo sapiens)
# Experiment: Inhibitory activity of compound against Plasmin (HP)
row,Ki [nM],Compound
1,40,"N=C(N)Nc1ccc(CC(NC(=O)[C@H](Cc2ccccc2)NC(=O)[C@@H](CCc2ccccc2)NC(=O)OC23CC4CC(CC(C4)C2)C3)C(=O)C(F)(F)F)cc1 (stereo partly drawn) [((R)-3-Phenyl-1-{(S)-2-phenyl-1-[3,3,3-trifluoro-1-(4-guanidino-benzyl)-2-oxo-propylcarbamoyl]-ethylcarbamoyl}-propyl)-carbamic acid adamantan-1-yl ester]"
2,60,"CC(C)(C)OC(=O)N[C@H](Cc1ccccc1)C(=O)N[C@H](C(=O)NC(Cc1ccc(NC(=N)N)cc1)C(=O)C(F)(F)F)c1ccc2ccccc2c1 (stereo partly drawn) [[(R)-1-({(S)-Naphthalen-2-yl-[3,3,3-trifluoro-1-(4-guanidino-benzyl)-2-oxo-propylcarbamoyl]-methyl}-carbamoyl)-2-phenyl-ethyl]-carbamic acid tert-butyl ester]"
3,120,"CC(C)(C)[C@@H](NC(=O)OC12CC3CC(CC(C3)C1)C2)C(=O)N[C@@H](Cc1ccccc1)C(=O)NC(Cc1ccc(NC(=N)N)cc1)C(=O)C(F)(F)F (stereo partly drawn) [((R)-2,2-Dimethyl-1-{(S)-2-phenyl-1-[3,3,3-trifluoro-1-(4-guanidino-benzyl)-2-oxo-propylcarbamoyl]-ethylcarbamoyl}-propyl)-carbamic acid adamantan-1-yl ester]"
4,110000,"CC(C)(C)[C@@H](NC(=O)N1CCOCC1)C(=O)NCC(=O)NC(Cc1ccc(NC(=N)N)cc1)C(=O)C(F)(F)F (stereo partly drawn) [Morpholine-4-carboxylic acid [(R)-2,2-dimethyl-1-({[3,3,3-trifluoro-1-(4-guanidino-benzyl)-2-oxo-propylcarbamoyl]-methyl}-carbamoyl)-propyl]-amide]"

# Reference: BindingDB's records for doi:10.1016/s0960-894x(98)00562-9 (The Procter & Gamble, 1999)
